Our source for the AC50 cell viability and efficacy values is the supplement of paper PMC10290057.

Counter-ions that a name gives are not always drawn.

Experiment [1] relates to HCT116. Kind of experiment: AC50 cell viability (CellTiter-Glo); higher = less potent. The note with it: 48 h.
Experiment [2] has as its system HCT116. Kind of experiment: efficacy (fitted maximal change in viability relative to DMSO control); higher = less cytotoxic (negative = loss of viability). Particulars: 48 h.
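Wherever AC50 cell viability (CellTiter-Glo) is given: HCT116 colorectal carcinoma cells screened at five concentrations per compound, luminescent viability scaled between DMSO wells and empty wells on each plate, curves fitted per compound.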
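Wherever efficacy (fitted maximal change in viability relative to DMSO control) is given: Luminescence-based viability readout, five doses per compound, normalized against on-plate DMSO and empty-well controls, followed by dose-response curve fitting for every drug.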

Consider `CCCCC(=O)OCC(=O)[C@]1(O)Cc2c(O)c3c(c(O)c2[C@@H](O[C@H]2C[C@H](NC(=O)C(F)(F)F)[C@H](O)[C@H](C)O2)C1)C(=O)c1c(OC)cccc1C3=O` [Valrubicin], for which, in experiment [1], the AC50 cell viability was 1.86 µM. Also, the efficacy in experiment [2] is -88.9%.

For the compound `C/C=C/C[C@@H](C)C(=O)[C@H]1C(=O)N[C@@H](C(C)C)C(=O)N(C)CC(=O)N(C)[C@@H](CC(C)C)C(=O)N[C@@H](C(C)C)C(=O)N(C)[C@@H](CC(C)C)C(=O)N[C@@H](C)C(=O)N[C@H](C)C(=O)N(C)[C@@H](CC(C)C)C(=O)N(C)[C@@H](CC(C)C)C(=O)N(C)[C@@H](C(C)C)C(=O)N1C` [Valspodar], the AC50 cell viability in experiment [1] amounted to 8.11 µM. Moreover, the efficacy in experiment [2] was -53.6%.

As for `COc1cc2c(Nc3ccc(Br)cc3F)ncnc2cc1OCC1CCN(C)CC1` [Vandetanib], the AC50 cell viability in experiment [1] was 14.8 µM. Besides, the efficacy in experiment [2] is -108%.

Take `Fc1ccc(C(OCCN2CCN(CCCc3ccccc3)CC2)c2ccc(F)cc2)cc1` [Vanoxeamine]: the AC50 cell viability in experiment [1] was 11.8 µM. In experiment [2], the efficacy was -96.8%.

Take `C[C@@H]\1COC(=N1)\NC2=CC3=C(C=C2)N=CN=C3NC4=CC(=C(OCC5=NC=CS5)C=C4)Cl` [Varlitinib tosylate]: the AC50 cell viability in experiment [1] came to 16.6 µM. Further, the efficacy in experiment [2] was -87.5%.

In turn, `O=C(/C=C\n1cnc(-c2cc(C(F)(F)F)cc(C(F)(F)F)c2)n1)NNc1ccccn1` [Verdinexor] displayed an AC50 cell viability in experiment [1] of 0.59 µM. Besides, in experiment [2], the efficacy was -83.9%.

On to `COC1=CC(=CC=C1)C2=CC=C(NC(=O)/C3=C(/CCC3)C(O)=O)C(=C2)F` [Vidofludimus], for which the AC50 cell viability in experiment [1] is 5.25 µM. Further, the efficacy in experiment [2] was -50.2%.

As to `CC[C@]1(O)C[C@H]2CN(CCC3=C([NH]C4=C3C=CC=C4)[C@@](C2)(C(=O)OC)C5=CC6=C(C=C5OC)N(C=O)[C@H]7[C@](O)([C@H](OC(C)=O)[C@]8(CC)\C=C/CN9CC[C@]67[C@H]89)C(=O)OC)C1` [Vincristine sulfate], the AC50 cell viability in experiment [1] came to 0.372 µM. Moreover, in experiment [2], the efficacy was -60.7%.

`CC[C@]12\C=C/CN3CC[C@]4([C@@H](N(C)C5=C4C=C(C(=C5)OC)[C@]6(CC7C[C@H](CN(C7)CC8=C6[NH]C9=C8C=CC=C9)C(C)(F)F)C(=O)OC)[C@](O)([C@@H]1OC(C)=O)C(=O)OC)[C@H]23` (stereo not given in full) [Vinflunine (Tartrate)] gave an AC50 cell viability in experiment [1] of 0.209 µM. In addition, the efficacy in experiment [2] was -67.8%.

The compound `CC[C@]12\C=C/CN3CC[C@]4([C@@H](N(C)C5=CC(=C(C=C45)[C@]6(C[C@H]7C[C@H](CN(C7)CC8=C6[NH]C9=C8C=CC=C9)C(C)(F)F)C(=O)OC)OC)[C@](O)([C@@H]1OC(C)=O)C(=O)OC)[C@H]23` [Vinflunine] yielded an AC50 cell viability in experiment [1] of 0.0986 µM. For the same compound, in experiment [2], the efficacy is -64.1%.

As to `CCC1=C[C@@H]2CN(C1)Cc1c([nH]c3ccccc13)[C@@](C(=O)OC)(c1cc3c(cc1OC)N(C)[C@H]1[C@@](O)(C(=O)OC)[C@H](OC(C)=O)[C@]4(CC)C=CCN5CC[C@]31[C@@H]54)C2` [Vinorelbine (ditartrate)], in experiment [1], the AC50 cell viability came out at 0.129 µM. The efficacy in experiment [2] is -60.3%.

With `CNC(=O)c1cccc(-c2ccc3c(N4CCOC[C@@H]4C)nc(N4CCOC[C@@H]4C)nc3n2)c1` [Vistusertib], in experiment [1], the AC50 cell viability amounted to 0.417 µM. For the same compound, in experiment [2], the efficacy is -31.3%.

As to `CC[C@@H]1C(=O)N(C)c2cnc(Nc3ccc(C(=O)NC4CCC(N5CCN(CC6CC6)CC5)CC4)cc3OC)nc2N1C(C)C` (stereo not given in full) [Volasertib], the AC50 cell viability in experiment [1] was 0.0661 µM. Also, the efficacy in experiment [2] was -89.8%.

For `CN1CC[C@H]([C@@H]1CO)C2=C3OC(=C/C(=O)C3=C(O)C=C2O)\C4=C(Cl)C=C(C=C4)C(F)(F)F` [Voruciclib], the AC50 cell viability in experiment [1] worked out at 7.42 µM. Also, the efficacy in experiment [2] was -83.8%.

For `CN[C@H]1CN(C[C@@H]1OC)C2=NC3=C(C=C2)C(=O)C(=C\N3C4=NC=CS4)/C(O)=O` [Vosaroxin], the AC50 cell viability in experiment [1] is 1.91 µM. Moreover, the efficacy in experiment [2] is -59.8%.

Take `CCN1C(=O)\C(=C/C2=C(C)N=C(N)N=C12)C3=CC=N[NH]3` [Voxtalisib]: the AC50 cell viability in experiment [1] was 5.25 µM. For the same compound, the efficacy in experiment [2] is -60.4%.

`c1cncc(CN2CCC(n3ncc4c(N5CCOCC5)nc(-c5ccc6[nH]ccc6c5)nc43)CC2)c1` [WAY-600] yielded an AC50 cell viability in experiment [1] of 5.9 µM. The efficacy in experiment [2] is -78.7%.

For `Cc1ccc(-c2nn(C(C)(C)CNC(=O)c3ccncc3)c3ncnc(N)c23)cc1` [WEHI-345], in experiment [1], the AC50 cell viability was determined as 6.61 µM. Moreover, the efficacy in experiment [2] is -53%.

The compound `COc1cc2ncnc(Nc3ccc(O)c(Br)c3)c2cc1OC` [WHI-P154] showed an AC50 cell viability in experiment [1] of 14.8 µM. Moreover, in experiment [2], the efficacy is -72.5%.

In the case of `CC(C)(C)NC(=O)c1cncn1C1CCN(c2ccc(-c3nnc(C(F)(F)F)o3)cn2)CC1` [WNK-463], the AC50 cell viability in experiment [1] amounted to 3.72 µM. Besides, in experiment [2], the efficacy was -49.1%.

In turn, `CN1CCN(Cc2ccc(NC(=O)Nc3ccc(Oc4cc(NC(=O)C5CC5)ncn4)cc3)cc2C(F)(F)F)CC1` [WS-3] came in with an AC50 cell viability in experiment [1] of 0.0934 µM. Also, in experiment [2], the efficacy was -73.9%.

`O=C(CCCCCCC(=O)N/N=C/c1ccc(N(c2ccccc2)c2ccccc2)cc1)NO` [WT-161] had an AC50 cell viability in experiment [1] of 2.09 µM. Also, in experiment [2], the efficacy was -86.8%.

Compound `COC(=O)Nc1ccc(-c2nc(N3CCOCC3)c3cnn(C4CCN(C(=O)OC)CC4)c3n2)cc1` [WYE-354] returned an AC50 cell viability in experiment [1] of 1.32 µM. For the same compound, the efficacy in experiment [2] was -56.3%.

The compound `COC(=O)Nc1ccc(-c2nc(N3CCOCC3)c3cnn(C4CCN(Cc5cccnc5)CC4)c3n2)cc1` [WYE-687] had an AC50 cell viability in experiment [1] of 13.2 µM. Besides, the efficacy in experiment [2] is -135%.

Regarding `C=CC(=O)Nc1cccc(Oc2nc(Nc3ccc(N4CCN(C)CC4)cc3)ncc2Cl)c1` [WZ-3146], in experiment [1], the AC50 cell viability turned out to be 4.17 µM. In experiment [2], the efficacy is -101%.

Compound `C=CC(=O)Nc1cccc(Oc2nc(Nc3ccc(N4CCN(C)CC4)cc3OC)ncc2Cl)c1` [WZ-4002] displayed an AC50 cell viability in experiment [1] of 11.8 µM. Also, the efficacy in experiment [2] is -96.5%.

`CCC(=O)Nc1cccc(Oc2nc(Nc3ccc(N4CCN(C)CC4)cc3OC)ncc2Cl)c1` [WZ-4003] came in with an AC50 cell viability in experiment [1] of 6.61 µM. Moreover, the efficacy in experiment [2] is -65.7%.

The compound `C=CC(=O)Nc1cccc(Sc2nc(Nc3ccc(N4CCN(C)CC4)cc3)ncc2Cl)c1` [WZ-8040] yielded an AC50 cell viability in experiment [1] of 7.42 µM. The efficacy in experiment [2] is -108%.

In experiment [1], `C[C@H]([C@H]1C\C(=C(CO)/C(=O)O1)C)[C@H]2CC[C@H]3[C@@H]4C[C@H]5O[C@]56[C@@H](O)\C=C/C(=O)[C@]6(C)[C@H]4CC[C@]23C` [Withaferin A] gave an AC50 cell viability of 1.66 µM. Moreover, the efficacy in experiment [2] is -102%.

In experiment [1], `CCN1CCC(n2cc(CNc3cc(Cl)c4ncc(C#N)c(Nc5ccc(F)c(Cl)c5)c4c3)nn2)CC1` [Wyeth Cot Inhibitor 2] displayed an AC50 cell viability of 20.9 µM. For the same compound, the efficacy in experiment [2] is -98.5%.

For `COc1cc2c(Nc3ccc(Cl)c(Cl)c3F)ncnc2cc1OC[C@@H]1C[C@@H]2CN(C)C[C@@H]2C1` [XL647], in experiment [1], the AC50 cell viability came out at 11.8 µM. Further, the efficacy in experiment [2] is -113%.

For `ClC1=CC=C2OC3=C(\N=C(NC3=O)\[C@@H]4CCCN4)C2=C1` [XL 413 hydrochloride], the AC50 cell viability in experiment [1] is 14.8 µM. In addition, in experiment [2], the efficacy was -47.6%.

In experiment [1], `CC(C)c1cc(CNc2nc(Nc3cc(C4CC4)[nH]n3)cc(N3CCN(C)CC3)n2)on1` [XL-228] had an AC50 cell viability of 0.295 µM. The efficacy in experiment [2] is -64%.

Turning to `Cc1c(C(=O)N2CCOc3ccc(-c4ccc(N)nc4)cc3C2)ccc([S+](C)(=O)[O-])c1F` [XL-388], in experiment [1], the AC50 cell viability worked out at 10.5 µM. The efficacy in experiment [2] is -65.5%.

Consider `COCCOC(=O)N1CCN([S+](=O)([O-])c2cc(F)c(Oc3ccc(Cl)cc3)c(F)c2)C(C(=O)NO)C1` (stereo not given) [XL-784], for which, in experiment [1], the AC50 cell viability turned out to be 10.5 µM. The efficacy in experiment [2] is -92.6%.

Consider `CC[C@@H](C)Nc1cc(C(=O)NC2CC3CCC(C2)N3c2ccc(C(=O)C3CC3)cn2)c(C)cc1C(N)=O` (stereo not given in full) [XL-888], for which, in experiment [1], the AC50 cell viability worked out at 0.118 µM. In addition, the efficacy in experiment [2] was -56.5%.

The compound `CC[C@@H](C)Nc1cc(C(=O)NC2CC3CC[C@@H](C2)N3c2ccc(C(=O)C3CC3)cn2)c(C)cc1C(N)=O` (stereo not given in full) [XL-888] came in with an AC50 cell viability in experiment [1] of 0.0833 µM. For the same compound, the efficacy in experiment [2] was -59.7%.

`COc1cc(N2CCN(C)CC2)ccc1Nc1ncc2c(n1)N(C)c1ccccc1C(=O)N2` [XMD8-87] registered an AC50 cell viability in experiment [1] of 18.6 µM. In experiment [2], the efficacy was -92.7%.

With `CCOc1cc(N2CCC(O)CC2)ccc1Nc1ncc2c(n1)N(C)c1ccccc1C(=O)N2C` [XMD8-92], the AC50 cell viability in experiment [1] was 8.33 µM. Besides, the efficacy in experiment [2] is -80.7%.

Compound `COc1cc(N2CCN(C)CC2)ccc1Nc1ncc2c(n1)N(C)c1ccccc1C(=O)N2C` [XMD17-109 (ERK5-IN-1)] came in with an AC50 cell viability in experiment [1] of 9.34 µM. Also, the efficacy in experiment [2] is -89.1%.

Consider `CCOc1cc(C(=O)N2CCC(N3CCN(C)CC3)CC2)ccc1Nc1ncc2c(n1)N(C1CCCC1)c1ccccc1C(=O)N2C` [XMD17-109], for which the AC50 cell viability in experiment [1] was found to be 7.42 µM. The efficacy in experiment [2] was -104%.

For the compound `CN1C(=O)c2sccc2N(C)c2nc(Nc3ccc([S+](N)(=O)[O-])cc3)ncc21` [XMU-MP-1], the AC50 cell viability in experiment [1] was determined as 3.32 µM. Further, in experiment [2], the efficacy is -99.2%.

In experiment [1], `Cc1cc(C(=O)N2CCN(c3cccc(Cl)c3)CC2)n(-c2ccccc2)n1` [XRP-44X] came in with an AC50 cell viability of 2.95 µM. Moreover, the efficacy in experiment [2] was -62.8%.

`C=C1C(=O)O[C@H]2C[C@H](C)C(/C=C/C(C)=O)=CC[C@H]12` [Xanthatin] showed an AC50 cell viability in experiment [1] of 2.63 µM. The efficacy in experiment [2] is -76%.

In experiment [1], `COc1ccc(C(=O)CC2(O)C(=O)Nc3c(Cl)ccc(Cl)c32)cc1` (stereo not given) [YK-4-279] had an AC50 cell viability of 1.18 µM. Further, in experiment [2], the efficacy was -57.1%.
